{"source": "paper PMC7884711", "about": "“Identification of efficient prokaryotic cell-penetrating peptides with applications in bacterial biotechnology” (Communications Biology, 2021)", "key": {"[1]": {"system": "wild-type and tetA plasmid-harboring E. coli", "experiment": "NiCl2 susceptibility, colony counts on LB agar", "type": "cell-based, Escherichia coli", "settings": "for Number of colonies, Plasmid-harboring cells: E. coli with tetA plasmid; for Number of colonies, Plasmid-harboring cells / Number of colonies, Wild-type cells: LB agar, 37 °C 24 h; for Number of colonies, Wild-type cells: E. coli", "text": "Additionally, for the counterselection of plasmid-removed cells, we inserted the tetracycline resistance gene (tetA) into the plasmid to be removed. With the plasmid, the cells can survive in tetracycline media but not in Ni^2+ media. Conversely, without the plasmid, the cells cannot survive in tetracycline media but can survive in Ni^2+ media. The tetA gene induces host cells to accumulate twice as much Ni^2+ as normal cells, so tetA-containing cells are more susceptible to NiCl2 toxicity than normal cells. To determine a suitable Ni^2+ concentration for the selection of plasmid-removed cells, wild-type E. coli cells and tetracycline-resistant cells harboring the tetA gene in the plasmid were grown on Luria–Bertani (LB) agar plates containing 1–4 mM NiCl2. As shown in Supplementary Table 1, after incubation at 37 °C for 24 h, wild-type E. coli cells were capable of growing on LB agar plates containing up to 2.2 mM NiCl2. […] Therefore, we chose 2.0 mM NiCl2 as the selection concentration (Supplementary Table 1).\n(§1) To investigate the susceptibility of tetA-harboring E. coli and tetA-harboring Methylomonas sp. DH-1 to NiCl2, wild-type cells and the cells containing the tetA gene in the plasmid (E. coli) or in the genome (Methylomonas sp. DH-1) were incubated in an LB (E. coli) or NMS (Methylomonas sp. DH-1) agar plate with different concentrations of NiCl2 (0.5–8 mM). The optimal NiCl2 concentrations that were determined to counter select tetA-removed cells were 2 mM and 4 mM for E. coli and Methylomonas sp. DH-1, respectively."}, "[2]": {"system": "wild-type and tetA-harboring Methylomonas sp. DH-1", "experiment": "NiCl2 susceptibility, colony counts on NMS agar", "type": "cell-based", "settings": "for Number of colonies, Wild-type cells: Methylomonas sp. DH-1, NMS agar; for Number of colonies, tetA-harboring cells: Methylomonas sp. DH-1 with genomic tetA, NMS agar", "method": "as §1"}}}
{"smiles": "[Cl][Ni][Cl]", "note": "[NiCl2]", "values": [{"measurement": "Number of colonies, Plasmid-harboring cells", "setting": "[1]; NiCl2 1.8 mM", "value": "10.67 ± 2.27"}, {"measurement": "Number of colonies, Plasmid-harboring cells", "setting": "[1]; NiCl2 1.9 mM", "value": "4 ± 1.15"}, {"measurement": "Number of colonies, Plasmid-harboring cells", "setting": "[1]; NiCl2 2 mM", "value": "0.34 ± 0.19"}, {"measurement": "Number of colonies, Plasmid-harboring cells", "setting": "[1]; NiCl2 2.1 mM", "value": 0}, {"measurement": "Number of colonies, Plasmid-harboring cells", "setting": "[1]; NiCl2 2.2 mM", "value": 0}, {"measurement": "Number of colonies, Plasmid-harboring cells", "setting": "[1]; NiCl2 2.3 mM", "value": 0}, {"measurement": "Number of colonies, Plasmid-harboring cells", "setting": "[1]; NiCl2 >2.30 mM", "value": 0}, {"measurement": "Number of colonies, Wild-type cells", "setting": "[1]; NiCl2 1.8 mM", "value": "2492 ± 94.27"}, {"measurement": "Number of colonies, Wild-type cells", "setting": "[1]; NiCl2 1.9 mM", "value": "2065.33 ± 181.07"}, {"measurement": "Number of colonies, Wild-type cells", "setting": "[1]; NiCl2 2 mM", "value": "1010.67 ± 121.71"}, {"measurement": "Number of colonies, Wild-type cells", "setting": "[1]; NiCl2 2.1 mM", "value": "776 ± 73.11"}, {"measurement": "Number of colonies, Wild-type cells", "setting": "[1]; NiCl2 2.2 mM", "value": "29 ± 4.40"}, {"measurement": "Number of colonies, Wild-type cells", "setting": "[1]; NiCl2 2.3 mM", "value": "0.67 ± 0.19"}, {"measurement": "Number of colonies, Wild-type cells", "setting": "[1]; NiCl2 >2.30 mM", "value": 0}, {"measurement": "NiCl2 concentration up to which wild-type E. coli cells were capable of growing", "setting": "[1]; LB agar plates, 37 °C, 24 h", "value": 2.2, "unit": "mM"}, {"measurement": "Growth of tetA-harboring E. coli cells on plates containing 2.0 mM NiCl2", "setting": "[1]; LB agar plates, 37 °C, 24 h, 2.0 mM NiCl2", "value": "not able to grow"}, {"measurement": "Number of colonies, Wild-type cells", "setting": "[2]; NiCl2 0.5 mM", "value": "180 ± 6.42"}, {"measurement": "Number of colonies, Wild-type cells", "setting": "[2]; NiCl2 1 mM", "value": "128 ± 10.50"}, {"measurement": "Number of colonies, Wild-type cells", "setting": "[2]; NiCl2 2 mM", "value": "114 ± 4.04"}, {"measurement": "Number of colonies, Wild-type cells", "setting": "[2]; NiCl2 4 mM", "value": "87 ± 16.09"}, {"measurement": "Number of colonies, Wild-type cells", "setting": "[2]; NiCl2 8 mM", "value": "21 ± 5.03"}, {"measurement": "Number of colonies, Wild-type cells", "setting": "[2]; NiCl2 >8.0 mM", "value": 0}, {"measurement": "Number of colonies, tetA-harboring cells", "setting": "[2]; NiCl2 0.5 mM", "value": "119 ± 6.42"}, {"measurement": "Number of colonies, tetA-harboring cells", "setting": "[2]; NiCl2 1 mM", "value": "125 ± 4.40"}, {"measurement": "Number of colonies, tetA-harboring cells", "setting": "[2]; NiCl2 2 mM", "value": "3 ± 2.08"}, {"measurement": "Number of colonies, tetA-harboring cells", "setting": "[2]; NiCl2 4 mM", "value": 0}, {"measurement": "Number of colonies, tetA-harboring cells", "setting": "[2]; NiCl2 8 mM", "value": 0}, {"measurement": "Number of colonies, tetA-harboring cells", "setting": "[2]; NiCl2 >8.0 mM", "value": 0}]}
